# Test results: patent US20250195513A1, “DEGRADATION OF IRAK4 BY CONJUGATION OF IRAK4 INHIBITORS WITH E3 LIGASE LIGAND AND METHODS OF USE” (BeiGene, Ltd., priority 2022, published 2025)
# Assays:
# Format in all cases: cell-based
# [1] = system: IL-6 production in human PBMC; assay: IL-6 Production Assay in Human PBMC (LPS stimulated); settings: for IC50 / Emax: Homo sapiens, 5 h; for Emax: read-out: IL-6 (PBMC) 5 h IMax
# Procedure: Frozen human PBMC (AllCells) were thawed in RPMI 1640 medium (Thermo Scientific) supplemented with 10% heat-inactivated FBS (Thermo Scientific) and recovered at 37° C. overnight. The next day, PBMC were seeded into 96-well plates at the density of 0.2 million cells per well and treated with compounds for 24 h. Then lipopolysaccharide was added at the final concentration of 10 ng/mL for 5 h. Culture supernatant was collected for subsequent measurement of IL-6 concentration by a TR-FRET-based method (Degorce, François, et al. Current chemical genomics. 2009, 3: 22) as described by the manufacturer manual (Cisbio). FRET signals were measured with PHERAstar FSX reader (BMG Labtech).
# [2] = system: TNF-α production in THP-1 cells; assay: TNF-α Production Assay in THP-1 Cells (LPS stimulated); settings: for IC50 / Emax: THP-1, 24 h; for Emax: read-out: TNF-α (THP-1) 24 h IMax
# In short: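 Cells (0.2 million/well) pretreated with compounds for 24 h, then stimulated with LPS at 1 μg/mL final for 24 h. TNF-α in culture supernatant quantified by TR-FRET immunoassay.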
# IRAK4 [3] = target: T1, IRAK4 (Homo sapiens, UniProt Q9NWZ3); assay: IRAK4 Degradation Assay (Karpas299, HTRF/TR-FRET); settings: Karpas-299 cells; for Dmax: maximum percentage of degradation
# T1 construct: endogenous in cells; host or cells: Karpas299
# T1 sequence (Q9NWZ3 1-460): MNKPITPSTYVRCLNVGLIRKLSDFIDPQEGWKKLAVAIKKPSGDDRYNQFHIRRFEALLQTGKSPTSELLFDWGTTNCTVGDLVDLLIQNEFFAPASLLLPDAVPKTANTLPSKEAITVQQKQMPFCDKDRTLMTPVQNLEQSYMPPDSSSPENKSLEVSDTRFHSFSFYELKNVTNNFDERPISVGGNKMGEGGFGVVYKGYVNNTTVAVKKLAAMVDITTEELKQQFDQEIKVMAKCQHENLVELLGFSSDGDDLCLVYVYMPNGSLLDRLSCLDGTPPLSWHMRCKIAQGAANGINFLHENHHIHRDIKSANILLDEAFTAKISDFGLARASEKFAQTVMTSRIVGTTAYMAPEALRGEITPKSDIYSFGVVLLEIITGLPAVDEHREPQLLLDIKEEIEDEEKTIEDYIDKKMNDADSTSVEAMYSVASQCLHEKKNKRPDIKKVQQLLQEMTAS
# In short: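 Karpas299 cells at 0.2 million per well were exposed to serially diluted compounds for 24 h or 5 h, then lysed. IRAK4 remaining in lysates was quantified by HTRF (665/620 nm) after overnight antibody incubation at room temperature. Percent degradation was fitted to a four-parameter curve to give IC50 (DC50).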
# IRAK4 [4] = target: T1, IRAK4; assay: IRAK4 Degradation Assay with Human Serum (Karpas299, HTRF/TR-FRET); settings: Karpas-299 in human serum, 24 hrs treatment; for DC50: read-out: IRAK4 degradtion with human serum assay DC50; for Dmax: read-out: IRAK4 degradtion with human serum assay Dmax (%)
# In short: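 Karpas299 cells in human AB serum (0.2 million/well) treated with serial compound dilutions for 24 h. After lysis, IRAK4 quantified by HTRF (overnight antibody incubation at room temperature, 665/620 nm read). Degradation percentage fitted to four-parameter curve to give DC50.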
# [5] = Homo sapiens, maximum inhibition
# [6] = 5 h treatment, read-out: IRAK4 in Karpas-299 (5 h) Dmax (%)
# [7] = 5 h treatment, read-out: IRAK4 in Karpas-299 (5 h) DC50
# [8] = 24 h treatment, read-out: IRAK4 in Karpas-299 (24 h) Dmax (%)
# [9] = 24 h treatment, read-out: IRAK4 in Karpas-299 (24 h) DC50
IC50 ([2]; Homo sapiens) [nM],Dmax (IRAK4 [3]; [6]) [%],DC50 (IRAK4 [3]; [7]) [nM],Dmax (IRAK4 [3]; [8]) [%],DC50 (IRAK4 [3]; [9]) [nM],DC50 (IRAK4 [4]) [nM],Dmax (IRAK4 [4]) [%],IC50 [2] [nM],Compound,IC50 [1] [nM],Emax ([1]; maximum inhibition) [%],"Emax [2, 5] [%]",IL-6 (PBMC) 5 h IMax ([1]; maximum inhibition) [%],TNF-α (THP-1) 24 h IMax ([2]; maximum inhibition) [%]
25,97,5.4,98,1.8,,,,"NC(=O)c1nn([C@H]2CC[C@H](N3CCN(C(=O)[C@@H]4CCN(c5cc(F)c([C@H]6CCC(=O)NC6=O)c(F)c5)C4)CC3)CC2)cc1NC(=O)c1coc(-c2ccnc(NCC(F)(F)F)c2)n1 [Example 12, N-(3-carbamoyl-1-((1R,4r)-4-(4-((R)-1-(4-((R)-2,6-dioxopiperidin-3-yl)-3,5-difluorophenyl)pyrrolidine-3-carbonyl)piperazin-1-yl)cyclohexyl)-1H-pyrazol-4-yl)-2-(2-((2,2,2-trifluoroethyl)amino)pyridin-4-yl)oxazole-4-carboxamide]",4.6,91,90,,
34,96,8.8,97,2.2,,,,"O=C1CC[C@H](c2c(F)cc(N3CC[C@@H](C(=O)N4CCN([C@H]5CC[C@H](n6cc(NC(=O)c7coc(-c8ccnc(NCC(F)(F)F)c8)n7)c(C(F)F)n6)CC5)CC4)C3)cc2F)C(=O)N1 [Example 17, N-(3-(difluoromethyl)-1-((1R,4r)-4-(4-((R)-1-(4-((R)-2,6-dioxopiperidin-3-yl)-3,5-difluorophenyl)pyrrolidine-3-carbonyl)piperazin-1-yl)cyclohexyl)-1H-pyrazol-4-yl)-2-(2-((2,2,2-trifluoroethyl)amino)pyridin-4-yl)oxazole-4-carboxamide]",6.7,93,87,,
,97,9.8,97,1.6,3.7,99,,"CC(C)(O)c1cc2nn([C@H]3CC[C@H](N4CCN([C@H]5C[C@H](c6ccc(N[C@H]7CCC(=O)NC7=O)cc6)C5)CC4)CC3)cc2cc1NC(=O)c1ccc2cc(C#N)cnn12 [Example 274, 3-cyano-N-(2-((1R,4r)-4-(4-((1S,3R)-3-(4-(((S)-2,6-dioxopiperidin-3-yl)amino)phenyl)cyclobutyl)piperazin-1-yl)cyclohexyl)-6-(2-hydroxypropan-2-yl)-2H-indazol-5-yl)pyrrolo[1,2-b]pyridazine-7-carboxamide]",2,64,,,
,,,96,0.9,15,91,,"COC[C@@H]1CN(CCc2cc(F)c([C@H]3CCC(=O)NC3=O)c(F)c2)CCN1[C@H]1CC[C@H](n2cc3cc(NC(=O)c4ccc5cc(C#N)cnn45)c(C(C)(C)O)cc3n2)CC1 [Example 325, 3-cyano-N-(2-((1S,4r)-4-((S)-4-(4-((R)-2,6-dioxopiperidin-3-yl)-3,5-difluorophenethyl)-2-(methoxymethyl)piperazin-1-yl)cyclohexyl)-6-(2-hydroxypropan-2-yl)-2H-indazol-5-yl)pyrrolo[1,2-b]pyridazine-7-carboxamide]",4.2,72,,,
,,,98,0.2,0.7,96,,"COc1cc2nn([C@H]3CC[C@H](N4CCN(CC5CN(c6cc(F)c([C@H]7CCC(=O)NC7=O)c(F)c6)C5)CC4)CC3)cc2cc1C(=O)Nc1cnc2cccnn12 [Example 345, 2-((1r,4r)-4-(4-((1-(4-((R)-2,6-dioxopiperidin-3-yl)-3,5-difluorophenyl)azetidin-3-yl)methyl)piperazin-1-yl)cyclohexyl)-N-(imidazo[1,2-b]pyridazin-3-yl)-6-methoxy-2H-indazole-5-carboxamide]",3.5,60,,,
,,,97,0.6,1.8,98,,"CC(C)(O)c1cc2nn(C3CCC(N4C[C@@H]5CN(C6CN(c7cc(F)c([C@H]8CCC(=O)NC8=O)c(F)c7)C6)C[C@H]5C4)CC3)cc2cc1NC(=O)c1ccc2cc(C#N)cnn12 (stereo partly drawn) [Example 360, 3-cyano-N-(2-((1R,4r)-4-((3aR,6aR)-5-(1-(4-((R)-2,6-dioxopiperidin-3-yl)-3,5-difluorophenyl)azetidin-3-yl)hexahydropyrrolo[3,4-c]pyrrol-2(1H)-yl)cyclohexyl)-6-(2-hydroxypropan-2-yl)-2H-indazol-5-yl)pyrrolo[1,2-b]pyridazine-7-carboxamide]",0.6,67,,,
,,,98,2.5,5.1,97,,"CC(C)(O)c1cc2nn([C@H]3CC[C@H](N4C[C@@H]5CN(CCc6cc(F)c([C@H]7CCC(=O)NC7=O)c(F)c6)C[C@H]5C4)CC3)cc2cc1NC(=O)c1ccc2cc(C#N)cnn12 [Example 362, 3-cyano-N-(2-((1S,4r)-4-((3aS,6aS)-5-(4-((R)-2,6-dioxopiperidin-3-yl)-3,5-difluorophenethyl)hexahydropyrrolo[3,4-c]pyrrol-2(1H)-yl)cyclohexyl)-6-(2-hydroxypropan-2-yl)-2H-indazol-5-yl)pyrrolo[1,2-b]pyridazine-7-carboxamide]",6,71,,,
,95,1.2,96,0.8,5.9,97,,"CC(C)(O)c1cc2nn([C@H]3CC[C@H](N4CCN([C@H]5C[C@@H](c6cc(F)c([C@H]7CCC(=O)NC7=O)c(F)c6)C5)CC4)CC3)cc2cc1NC(=O)c1ccc2cc(C#N)cnn12 [Example 363, 3-cyano-N-(2-((1S,4r)-4-(4-((1S,3S)-3-(4-((R)-2,6-dioxopiperidin-3-yl)-3,5-difluorophenyl)cyclobutyl)piperazin-1-yl)cyclohexyl)-6-(2-hydroxypropan-2-yl)-2H-indazol-5-yl)pyrrolo[1,2-b]pyridazine-7-carboxamide]",2.2,67,,,
11,97,3.1,99,0.7,12,96,,"COC[C@H]1CN([C@H]2CC[C@H](n3cc4cc(NC(=O)c5ccc6cc(C#N)cnn56)c(C(C)(C)O)cc4n3)CC2)CCN1CC1CN(c2cc(F)c([C@H]3CCC(=O)NC3=O)c(F)c2)C1 [Example 367, 3-cyano-N-(2-((1R,4r)-4-((R)-4-((1-(4-((R)-2,6-dioxopiperidin-3-yl)-3,5-difluorophenyl)azetidin-3-yl)methyl)-3-(methoxymethyl)piperazin-1-yl)cyclohexyl)-6-(2-hydroxypropan-2-yl)-2H-indazol-5-yl)pyrrolo[1,2-b]pyridazine-7-carboxamide]",,,96,,
,90,1.3,98,0.8,6.9,95,,"COC[C@@H]1CN([C@H]2CC[C@H](n3cc4cc(NC(=O)c5ccc6cc(C#N)cnn56)c(C(C)(C)O)cc4n3)CC2)CCN1C1CN(c2cc(F)c([C@H]3CCC(=O)NC3=O)c(F)c2)C1 [Example 387, 3-cyano-N-(2-((1S,4r)-4-((S)-4-(1-(4-((R)-2,6-dioxopiperidin-3-yl)-3,5-difluorophenyl)azetidin-3-yl)-3-(methoxymethyl)piperazin-1-yl)cyclohexyl)-6-(2-hydroxypropan-2-yl)-2H-indazol-5-yl)pyrrolo[1,2-b]pyridazine-7-carboxamide]",1.7,53,,,
,,,,,,,19,CC[C@@H]1[C@H](F)C(=O)N[C@@H]1COc1nccc2cc(C(N)=O)c(OC)cc12 [PF-06650833],,,,<50,67
